{"source": "patent US6979677B1", "about": "“Inhibition of vascular smooth muscle cell proliferation” (priority 1994, dated 2005)", "origin": "cited, not measured here", "key": {"cerebral glioma": {"tested_on": "cerebral glioma", "conditions": "rats with HSV-tk-expressing murine fibroblasts, given GCV"}, "lymphomas": {"tested_on": "lymphomas", "conditions": "of 12 mice treated with GCV"}, "[1]": {"tested_on": "transplantable murine adenocarcinoma", "conditions": "HSV-tk transfected adenocarcinoma treated with GCV"}, "[2]": {"tested_on": "nondividing rabbit arterial cells"}}, "data": [{"smiles": "Nc1nc(O)c2ncn(COC(CO)CO)c2n1", "note": "[GCV, ganciclovir]", "values": [{"measurement": "glioma regression, microscopically and macroscopically", "setting": "cerebral glioma", "value": "regressed completely"}, {"measurement": "number of mice with complete tumor regression", "setting": "lymphomas", "value": 11}, {"measurement": "tumor response in vivo", "setting": "[1]", "value": "regression"}, {"measurement": "expression of HSV-tk-β-galactosidase construct under GCV treatment", "setting": "[2]", "value": "unaffected"}]}]}
